# Measured values from patent US20180153807A1, “COMPOSITIONS AND METHODS FOR TREATING MYCOBACTERIA INFECTIONS AND LUNG DISEASE” (priority 2015, published 2018).
# Like-named read-outs stand apart in the source and are kept apart here.
# Columns and labels:
# [1] = test system: Mycobacterium avium complex (MAC) 104 biofilm; test: Cochleate treatment of Mycobacteria biofilm on polarized A549 cells in transwell; format: cell-based; conditions: delivered daily to bottom well, MAC 104 biofilm on A549 cells
# Method: A549 alveolar epithelial cells were cultured in a transwell system. A549 cells became polarized after 6 days and integrity. Bacteria were seeded on the top (apical surface) of the cells. Seven days were allowed for biofilm formation.
# Mycobacterium avium complex (MAC) 104 (10^5 bacteria) infection inoculum.
# 0.1 ml of the different treatments were delivered to the bottom well daily. The basolateral surface (bottom) of the cells were immersed in the tissue culture medium present in the bottom well. Three replicas per experimental group were tested in two different experiments.
# Biofilm and epithelial cells were lysed and diluted and plated onto 7H10.
# [2] = test system: Mycobacterium avium complex (MAC)
# Method: C57 BL/6 mice were infected with 8.3×10^6 of Mycobacterium avium complex (MAC) intranasally and the infection was allowed to establish for 7 days. Then baseline bacterial load was determined in 10 mice and treatment protocols were initiated. Mice were treated daily for 4 weeks (orally or with intraperitonal injection of free amikacin). Mice were harvested and lung and spleens were removed, homogenized and plated to determine the bacterial load. Experimental groups had 12 mice each.
# [3] = rats; cited from earlier work
structure (smiles),measurement,setting,value
"NCC[C@H](O)C(=O)N[C@@H]1C[C@H](N)[C@@H](O[C@H]2O[C@H](CN)[C@@H](O)[C@H](O)[C@H]2O)[C@H](O)[C@H]1O[C@H]1O[C@H](CO)[C@@H](O)[C@H](N)[C@H]1O [Free amikacin, Amikacin]","CFU/bacteria, 14 days",[1]; 20 μg/ml,9.1 ± 0.4 × 10^5 CFU
same,"CFU/bacteria, 14 days",[1]; 100 μg/ml,3.2 ± 0.3 × 10^5 CFU
same,bacterial load,"[2]; IP 100 mg/Kg, daily for 4 weeks, 100 mg/kg",5.6 ± 0.4 × 10^3^(2)(3) CFU
same,bacterial load,"[2]; IP 100 mg/Kg, daily for 4 weeks, listed as AMK, 100 mg/kg",5.6×10^3 CFU
same,kind of effect observed (in words),[2]; daily for 4 weeks,bactericidal
same,"toxicity, histopathology including kidneys (in words)","[2]; mouse, in vivo",no toxicity was observed
same,bacterial load,"[2]; oral, daily for 4 weeks, dose not given",2.2 ± 0.5 × 10^5^(1) CFU
same,published NOAEL for injected (intravenous) amikacin,[3],100 mg/kg
